# Experimental data published in ChEMBL document CHEMBL6177938, “Semisynthetic phytochemicals in cancer treatment: a medicinal chemistry perspective” (RSC Med Chem, 2024).
# Columns and labels:
# [1] = tested on: SF-295; assay: Cytotoxicity against human SF-295 cells assessed as reduction in cell growth incubated for 72 hrs by MTT assay; assay type: functional, cell-based; conditions: SF-295, 72 h
# [2] = tested on: HL-60; assay: Cytotoxicity against human HL-60 cells assessed as reduction in cell growth incubated for 72 hrs by MTT assay; assay type: functional, cell-based; conditions: HL-60, 72 h
# [3] = tested on: PC-3; assay: Cytotoxicity against human PC-3 cells assessed as reduction in cell growth incubated for 72 hrs by MTT assay; assay type: functional, cell-based; conditions: PC-3, 72 h
# [4] = tested on: HepG2; assay: Cytotoxicity against human HepG2 cells assessed as reduction in cell growth incubated for 72 hrs by MTT assay; assay type: functional, cell-based; conditions: HepG2, 72 h
# [5] = tested on: HCT-116; assay: Cytotoxicity against human HCT-116 cells assessed as reduction in cell growth incubated for 72 hrs by MTT assay; assay type: functional, cell-based; conditions: HCT-116, 72 h
# [6] = tested on: MCF7; assay: Cytotoxicity against human MCF7 cells; assay type: functional, cell-based
# [7] = tested on: HepG2; assay: Cytotoxicity against human HepG2 cells; assay type: functional, cell-based
# [8] = tested on: MCF7; assay: Cytotoxicity against human MCF7 cells assessed as reduction in cell viability incubated for 48 hrs by MTT assay; assay type: functional, cell-based; conditions: MCF7, 48 h
# [9] = tested on: MCF7; assay: Inhibition of colony formation in human MCF7 cells at 100 microM measured after 72 hrs by crystal violet staining based analysis relative to control; assay type: functional
# [10] = tested on: MCF7; assay: Cytotoxicity against human MCF7 cells assessed as reduction in cell growth incubated for 72 hrs by MTT assay; assay type: functional, cell-based; conditions: MCF7, 72 h
# [11] = tested on: SK-BR-3; assay: Antiproliferative activity against human SK-BR-3 cells assessed as reduction in cell viability incubated for 24 hrs by alamar blue assay; assay type: functional, cell-based; conditions: SK-BR-3, 24 h
# [12] = tested on: HCT-116; assay: Cytotoxicity against human HCT-116 cells assessed as reduction in cell viability incubated for 48 hrs by SRB assay; assay type: functional, cell-based; conditions: HCT-116, 48 h
# [13] = tested on: MOLT-4; assay: Antiproliferative activity against human MOLT-4 cells assessed as reduction in cell viability measured for 48 hrs by WST-1 assay; assay type: functional, cell-based; conditions: MOLT-4, 48 h
# [14] = tested on: HeLa; assay: Antiproliferative activity against human Hela cells assessed as reduction in cell viability measured for 48 hrs by WST-1 assay; assay type: functional, cell-based
# [15] = tested on: HT-29; assay: Antiproliferative activity against human HT-29 cells assessed as reduction in cell viability measured for 48 hrs by WST-1 assay; assay type: functional, cell-based; conditions: HT-29, 48 h
# [16] = tested on: A549; assay: Antiproliferative activity against human A549 cells assessed as reduction in cell viability measured for 48 hrs by WST-1 assay; assay type: functional, cell-based; conditions: A549, 48 h
# [17] = tested on: MCF7; assay: Antiproliferative activity against human MCF7 cells assessed as reduction in cell viability measured for 48 hrs by WST-1 assay; assay type: functional, cell-based; conditions: MCF7, 48 h
# [18] = tested on: HCT-116; assay: Antiproliferative activity against human HCT-116 cells assessed as reduction in cell viability incubated for 24 hrs by MTT assay; assay type: functional, cell-based; conditions: HCT-116, 24 h
# [19] = tested on: SK-MEL-28; assay: Cytotoxicity against human SK-MEL-28 cells assessed as reduction in cell growth incubated for 24 hrs by MTT assay; assay type: functional
# [20] = tested on: KYSE-70 cell line; assay: Cytotoxicity against human KYSE-70 cells assessed as reduction in cell viability incubated for 72 hrs by MTS assay; assay type: functional, cell-based; conditions: KYSE-70, 72 h
# [21] = tested on: KYSE-270; assay: Cytotoxicity against human KYSE-270 cells assessed as reduction in cell viability incubated for 72 hrs by MTS assay; assay type: functional, cell-based; conditions: KYSE-270, 72 h
# [22] = tested on: A-375; assay: Antiproliferative activity against human A-375 cells assessed as reduction in cell growth incubated for 48 hrs by MTT assay; assay type: functional, cell-based; conditions: A-375, 48 h
# [23] = tested on: MeWo; assay: Antiproliferative activity against human MeWo cells assessed as reduction in cell growth incubated for 48 hrs by MTT assay; assay type: functional, cell-based
# [24] = tested on: MCF7; assay: Cytotoxicity against human MCF7 cells assessed as reduction in cell viability; assay type: functional, cell-based
# [25] = tested on: Calu-3; assay: Cytotoxicity against human Calu-3 cells assessed as reduction in cell viability; assay type: functional, cell-based
# [26] = biological target: Cytochrome P450 1A1 (Homo sapiens, UniProt P04798); assay: Inhibition of CYP1A1 (unknown origin) expressed in HEK293 cells; assay type: ADME, cell-based
# Cytochrome P450 1A1, sequence (P04798 whole entry): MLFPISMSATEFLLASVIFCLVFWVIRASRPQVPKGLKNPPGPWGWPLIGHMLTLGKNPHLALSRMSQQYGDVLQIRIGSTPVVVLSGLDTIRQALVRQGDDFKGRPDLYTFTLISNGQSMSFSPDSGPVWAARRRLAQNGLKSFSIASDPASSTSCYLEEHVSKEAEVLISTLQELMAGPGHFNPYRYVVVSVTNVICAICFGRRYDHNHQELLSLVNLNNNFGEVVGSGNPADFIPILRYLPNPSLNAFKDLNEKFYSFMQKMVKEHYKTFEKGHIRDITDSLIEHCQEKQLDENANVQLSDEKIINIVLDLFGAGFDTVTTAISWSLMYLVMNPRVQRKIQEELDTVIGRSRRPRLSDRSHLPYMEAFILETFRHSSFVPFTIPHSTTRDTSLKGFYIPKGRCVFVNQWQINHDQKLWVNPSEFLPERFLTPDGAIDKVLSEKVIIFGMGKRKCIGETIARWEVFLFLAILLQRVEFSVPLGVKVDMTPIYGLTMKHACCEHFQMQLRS
# [27] = Selectivity index, ratio of IC50 for inhibition of CYP1B1 (unknown origin) to IC50 for inhibition of CYP1A1 (unknown origin)
# [28] = tested on: A2780; assay: Antiproliferative activity against human A2780 cells assessed as reduction in cell viability incubated for 48 hrs by MTT assay; assay type: functional, cell-based; conditions: A2780, 48 h
# [29] = tested on: SK-OV-3; assay: Antiproliferative activity against human SK-OV-3 cells assessed as reduction in cell viability incubated for 48 hrs by MTT assay; assay type: functional, cell-based; conditions: SK-OV-3, 48 h
# [30] = tested on: HL-60; assay: Growth inhibition of human HL-60 cells; assay type: functional
# [31] = tested on: HeLa; assay: Antiproliferative activity against human HeLa cells assessed as reduction in cell viability incubated for 72 hrs by MTT assay; assay type: functional, cell-based
# [32] = tested on: A549; assay: Cytotoxicity against human A549 cells assessed as reduction in cell growth incubated for 48 hrs by MTT assay; assay type: functional, cell-based; conditions: A549, 48 h
structure (smiles),measurement,setting,value
CCC(=O)OCC(=O)[C@@]1(C)CC[C@H]2C(=C[C@@H]3OC(=O)[C@@]4(C)[C@@H]3[C@]23CC[C@]4(O)OC3)C1,IC50,[1],3.59 µM
same,IC50,[2],3.14 µM
same,IC50,[3],3.2 µM
same,IC50,[4],13.5 µM
same,IC50,[5],3.62 µM
C/C(=N\NC(=O)c1ccc(O)cc1)c1ccc(NC(=O)Cn2c(=O)c3c(ncn3C)n(C)c2=O)cc1,IC50,[6],0.42 µM
same,IC50,[7],0.22 µM
C/C=C/c1ccc(OCc2ccc(Cl)cc2)c(OC)c1,IC50,[8],6.59 µM
same,inhibition at 100 µM,[9],87.5%
"C[C@@H]1CC[C@H]2[C@@H](C)C(OC(=O)CCC(=O)O)O[C@@H]3O[C@@]4(C)CC[C@@H]1[C@]32OO4 (single isomer, unassigned)",IC50,[10],43.8 µM
COc1ccc2c(CCCc3ccc(Cl)cc3Cl)c3[n+](cc2c1OC)CCc1cc2c(cc1-3)OCO2,IC50,[11],6.3 µM
C[C@H]1CC[C@@H]2[C@@H](OC(=O)[C@]23C[C@H]2CCCN2C32C(=O)c3ccccc3C2=O)[C@]2(C)C(=O)C=C[C@@]12O,IC50,[12],5 µM
COc1c2c(cc3c1OCO3)[C@]13C=C[C@H](OC)C[C@H]1N(C2)C[C@H]3OC(=O)c1ccc(Cl)c([N+](=O)[O-])c1,IC50,[13],1.9 µM
same,IC50,[14],0.7 µM
same,IC50,[15],1.4 µM
same,IC50,[16],0.8 µM
same,IC50,[17],0.6 µM
CN1CCN(CCCOc2cc(-c3oc4cc(O)cc(O)c4c(=O)c3O)ccc2O)CC1,IC50,[18],0.48 µM
CC(=O)OCC1=C2[C@@H](OC(C)=O)C[C@@](C)(OC(C)=O)C(=O)CC[C@@]3(C)O[C@@H]3[C@@]2(OC(C)=O)OC1=O,CC50,[19],3.1 µM
CCCCCCCCCCCC(=O)O[C@H]1C(C)=C[C@]23C(=O)[C@@H](C=C(CO)[C@@H](O)[C@]12O)[C@H]1[C@@H](C[C@H]3C)C1(C)C,IC50,[20],3.58 µM
same,IC50,[21],1.88 µM
CC1(C)CC[C@]2(C(=O)N3CCOCC3)CC[C@]3(C)C(=CC[C@@H]4[C@@]5(C)CC/C(=N\OC(=O)CBr)C(C)(C)[C@@H]5CC[C@]43C)[C@@H]2C1,IC50,[22],100 µM
same,IC50,[23],100 µM
Cn1c2ccccc2c(=O)c2c(OCCCOc3cc4c(c5c3c(=O)c3ccccc3n5C)C=CC(C)(C)O4)cc3c(c21)C=CC(C)(C)O3,IC50,[24],13.2 µM
same,IC50,[25],4.49 µM
COc1c2occc2c(OC)c2c(=O)cc(-c3ccc(F)c(Br)c3)oc12,IC50,[26],0.14 µM
same,Ratio IC50,[27],170
CC1=C(O)C(=O)C=C2C1=CC=C1[C@@]2(C)CC[C@@]2(C)[C@@H]3C[C@](C)(C(=O)N4CCN(C(C)C)CC4)CC[C@]3(C)CC[C@]12C,IC50,[28],0.87 µM
same,IC50,[29],0.47 µM
COc1cc(/C=C/c2cc(/C=C/c3ccc(O)c(OC)c3)n(-c3c(Cl)cccc3Cl)c(=O)n2)ccc1O,GI50,[30],2.64 µM
CCNC(=O)CC[C@H](NC(=O)c1cc2cc(Br)ccc2oc1=O)C(=O)OCC,IC50,[31],250 µM
COc1ccc(CC(=O)OCC2=CC[C@@H]3[C@](C)(CO)[C@H](O)CC[C@@]3(C)[C@@H]2/C=C/C2=CCOC2=O)cc1,IC50,[32],3.5 µM
